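Five concentrations, 48 hours, 96-well plates. GI50: concentration for 50% inhibition of growth. At the TGI there is no net growth.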
What was measured:
Assay in all cases: NCI-60 cell line screen, 48 h
786-0 renal = test system: 786-0 renal
A498 renal = test system: A498 renal
A549 NSCLC = test system: A549 NSCLC
ACHN renal = test system: ACHN renal
BT-549 breast = test system: BT-549 breast
CAKI-1 renal = test system: CAKI-1 renal
CCRF-CEM leukemia = test system: CCRF-CEM leukemia
COLO 205 colon = test system: COLO 205 colon
DU-145 prostate = test system: DU-145 prostate
HCC-2998 colon = test system: HCC-2998 colon
HCT-116 colon = test system: HCT-116 colon
HCT-15 colon = test system: HCT-15 colon
HL-60(TB) leukemia = test system: HL-60(TB) leukemia
HOP-62 NSCLC = test system: HOP-62 NSCLC
HOP-92 NSCLC = test system: HOP-92 NSCLC
HS 578T breast = test system: HS 578T breast
HT29 colon = test system: HT29 colon
IGROV1 ovarian = test system: IGROV1 ovarian
K-562 leukemia = test system: K-562 leukemia
KM12 colon = test system: KM12 colon
LOX IMVI melanoma = test system: LOX IMVI melanoma
M14 melanoma = test system: M14 melanoma
MALME-3M melanoma = test system: MALME-3M melanoma
MCF7 breast = test system: MCF7 breast
MDA-MB-231 breast = test system: MDA-MB-231 breast
MDA-MB-435 = test system: MDA-MB-435
MOLT-4 leukemia = test system: MOLT-4 leukemia
NCI-H226 lung = test system: NCI-H226 lung

O=C1/C(=C/c2ccc(Cl)cc2Cl)CN(S(=O)(=O)c2ccccc2)C/C1=C\c1ccc(Cl)cc1Cl
GI50 (786-0 renal): 230 nM
TGI (786-0 renal): 509 nM
GI50 (A498 renal): 1500 nM
TGI (A498 renal): 8760 nM
GI50 (A549 NSCLC): 316 nM
TGI (A549 NSCLC): 1510 nM
GI50 (ACHN renal): 717 nM
TGI (ACHN renal): 6880 nM
GI50 (BT-549 breast): 617 nM
TGI (BT-549 breast): 2640 nM
GI50 (CAKI-1 renal): 817 nM
TGI (CAKI-1 renal): 4220 nM
GI50 (CCRF-CEM leukemia): 291 nM
TGI (CCRF-CEM leukemia): 1300 nM
GI50 (COLO 205 colon): 339 nM
TGI (COLO 205 colon): 1210 nM
GI50 (DU-145 prostate): 466 nM
TGI (DU-145 prostate): 19700 nM
GI50 (HCC-2998 colon): 379 nM
TGI (HCC-2998 colon): 1310 nM
GI50 (HCT-116 colon): 198 nM
TGI (HCT-116 colon): 421 nM
GI50 (HCT-15 colon): 226 nM
TGI (HCT-15 colon): 614 nM
GI50 (HL-60(TB) leukemia): 731 nM
TGI (HL-60(TB) leukemia): > 19900 nM
GI50 (HOP-62 NSCLC): 343 nM
GI50 (HOP-92 NSCLC): 1700 nM
TGI (HOP-92 NSCLC): 5550 nM
GI50 (HS 578T breast): 322 nM
TGI (HS 578T breast): 3870 nM
GI50 (HT29 colon): 301 nM
TGI (HT29 colon): 907 nM
GI50 (IGROV1 ovarian): 344 nM
TGI (IGROV1 ovarian): 1290 nM
GI50 (K-562 leukemia): 326 nM
TGI (K-562 leukemia): > 38300 nM
GI50 (KM12 colon): 276 nM
TGI (KM12 colon): 728 nM
GI50 (LOX IMVI melanoma): 193 nM
TGI (LOX IMVI melanoma): 395 nM
GI50 (M14 melanoma): 2770 nM
TGI (M14 melanoma): > 100000 nM
GI50 (MALME-3M melanoma): 7200 nM
TGI (MALME-3M melanoma): > 100000 nM
GI50 (MCF7 breast): 292 nM
TGI (MCF7 breast): > 100000 nM
GI50 (MDA-MB-231 breast): 469 nM
TGI (MDA-MB-231 breast): 2670 nM
GI50 (MDA-MB-435): 701 nM
TGI (MDA-MB-435): 2890 nM
GI50 (MOLT-4 leukemia): 460 nM
TGI (MOLT-4 leukemia): 12000 nM
GI50 (NCI-H226 lung): 513 nM
